Experimental data: patent US6228602A, “Competitive apo-peroxidase assay” (Bayer Corporation, priority 1999, dated 2001)

Assays:
[1] = Metal porphyrin study: metal porphyrin in water without apo-enzyme (Example IV); type: biochemical; conditions: HEMASTIX no lepidine/pH 7.5
Method: (§1) In this example, other metal porphyrins were tested for their ability to reactivate different types of apo-peroxidases. Metals such as Fe, Cu, Mg, Zn, Ni, Mn, Co and Pd were complexed to hematin and added to the peroxidase detecting agent. Metals such as Mn, Fe, Cu and Co and porphyrins other than hematin, i.e. deuteroporphyrin and coproporphyrin were also shown to provide the desired response.

[2] = target: T1, apo-POD (Armoracia rusticana, UniProt P00433); experiment: Metal porphyrin study: reactivation of apo-peroxidase (Example IV); type: biochemical, horse radish; conditions: for % R @ 90 second read time on CLINITEK-200+, mean: 12 μM apo-POD, HEMASTIX no lepidine/pH 7.5; for response / activity with apo-peroxidase (in words): metal porphyrin study
T1 construct: purchased Sigma Chemical Company, St. Louis, Mo
T1 sequence (P00433 31-353): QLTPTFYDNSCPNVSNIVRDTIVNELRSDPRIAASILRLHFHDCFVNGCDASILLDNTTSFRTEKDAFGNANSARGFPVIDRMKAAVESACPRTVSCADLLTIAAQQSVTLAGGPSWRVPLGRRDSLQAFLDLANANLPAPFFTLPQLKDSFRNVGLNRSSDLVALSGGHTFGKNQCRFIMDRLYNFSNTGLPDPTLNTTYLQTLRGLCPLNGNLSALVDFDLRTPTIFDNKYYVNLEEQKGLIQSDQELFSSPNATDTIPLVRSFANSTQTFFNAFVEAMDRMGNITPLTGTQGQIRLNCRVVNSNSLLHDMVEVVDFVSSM
Method: as §1

[3] = target: T2, apo-Hb (Homo sapiens, UniProt P68871+P69905); experiment: Metal porphyrin study: reactivation of apo-hemoglobin (Example IV); type: biochemical; conditions: 12 μM apo-Hb, 12 μM metal porphyrin, HEMASTIX no lepidine/pH 7.5
T2 construct: made in house
Method: as §1
A 0.7% solution of hemoglobin was lowered to pH 1.5 and the resulting solution was ultrafiltered through a 10 KDa cutoff membrane followed by several changes of water. Filtered material was reconstituted into water. The apo-hemoglobin passed […]. […] It produced a HEMASTIX® result of +++++ indicating a high concentration of hemoglobin.

[4] = target: T3, apo-peroxidase (Armoracia rusticana, UniProt P00433); experiment: Proximity effect: antibody binding of hematin-antigen conjugate prevents apo-enzyme reactivation (Example II); type: biochemical, horse radish; conditions: for Reagent Response (% R @ 30 Sec) @ 660 nm: 36 nM apo-peroxidase, 36 nM antigen-hematin, 36 nM antibody
T3 construct: purchased Sigma Chemical Company, St. Louis, Mo
T3 sequence (P00433 31-353): T1 sequence (P00433 31-353)
Method: A 10 μL sample of hematin-BJP^1 (3.6 μM, 8.61 mg/dL in phosphate buffered saline), anti-BJP (3.6 μM, 52.56 mg/dL in PBS) and BJP (3.6 μM, 8.28 mg/dL in phosphate buffered saline) were mixed with 10 μL apo-POD (3.6 μM, 14.0 mg/dL in phosphate buffered saline) and […] phosphate buffered saline. The solution was incubated for 5 to 10 minutes at room temperature and the response to HEMASTIX® reagent dipped in the test solution was measured using a CLINITEK®-200 instrument. The response of HEMASTIX® reagent with the phosphate buffered saline solution containing hematin alone was 65.7% reflectance at 1 minute. Sheep anti-human BJP monoclonal antibody was obtained from The Binding Site Limited of Birmingham, England.
In this example, antibody binding of the hematin-antigen conjugate is shown to prevent apo-enzyme reactivation (Table 4). The data set out in Table 4 were generated by using the HEMASTIX® formula with lepidine but lacking apo-peroxidase, antigen-hematin antigen and antibody. The later were mixed in solution and reagent strips with the modified HEMASTIX® formula were immediately dipped into the solution and read using a CLINITEK™-200+ reflectance spectrometer.

[5] = target: T1, apo-POD; experiment: Detection limit study: peroxidase activity / apo-POD reactivation read with HEMASTIX reagent (Example I); type: biochemical, horse radish; conditions: for peroxidase activity (in words): 3.6 nM
Method: In this example apo-peroxidase is compared to hematin and hematin-antigen conjugates to determine the detectable concentrations and effects of conjugation and antigen molecular weight on apo-enzyme reactivations. Solutions containing combinations of apo-POD, Fe^+3 hematin and hematin conjugate were tested for peroxidase activity. Peroxidase activity was measured in urine using HEMASTIX® reagent as set out in Table 3. This reagent is similar to that set out in Table 1 but lacking the metal porphyrin conjugate, competitive binder and apo-peroxidase while containing lepidine as an activator.
A 10 μL portion of hematin (3.6 μM, 0.23 mg/dL in phosphate buffered saline) or a 10 μL hematin-BJP allotment (3.6 μM, 8.61 mg/dL in phosphate buffered saline) was mixed with 10 μL apo-POD (3.6 μM, 14.0 mg/dL in phosphate buffered saline) all in 980 μL of phosphate buffered saline and then diluted to the desired concentration with additional phosphate buffered saline. The solution was incubated for 1 minute at 40° C. or at room temperature. The response of HEMASTIX® reagent dipped into the test solution was measured on a CLINITEK™-200 reflectance instrument. The response of the reagent set out in Table 1 on the phosphate buffered solution alone was 65.2% reflectance at 1 minute.
Apo-horse radish peroxidase was obtained from Sigma Chemical Company of St. Louis, Mo. The phosphate buffered solution was prepared by adding 0.69 g monobasic sodium phosphate, 0.71 g of dibasic sodium phosphate and 0.45 g of sodium chloride to 100 mL of water.
The HEMASTIX® reagent referred to earlier with the addition of lepidine and at a lower pH when compared to the formula of Table 1 was applied to the strip in a two dip system of the following composition and used in Examples I to IV (Table 3).

[6] = target: T1, apo-POD; experiment: as above; type: biochemical, horse radish; conditions: 1 minute @ 30° C.
[7] = target: T1, apo-POD; experiment: Interference study with peroxidase detecting dry reagent (Example III); type: biochemical, horse radish; conditions: hemoglobin/myoglobin: reagent without modification; ascorbate: system with ascorbate scavenger
Method: In this example, a peroxidase detecting dry reagent with resistance to 0.81 mg/dL hemoglobin (or myoglobin) and 25 mg/dL ascorbate and sufficient sensitivity to detect apo-peroxidase reactivation was used. […]
The reagent was tested by dipping it into solutions containing the interfering substance with and without Fe hematin. […]

[8] = 3.6 nM, antigen IgG, hematin, antigen-hematin or apo-POD alone (Cases A, B, E)
[9] = (3.6 nM; antigen Sulfmethazine), hematin, antigen-hematin or apo-POD alone (Cases A, B, E)
[10] = (3.6 mM; antigen BJP), hematin, antigen-hematin or apo-POD alone (Cases A, B, E)

T2 sequence (P69905 2-142 limits assumed): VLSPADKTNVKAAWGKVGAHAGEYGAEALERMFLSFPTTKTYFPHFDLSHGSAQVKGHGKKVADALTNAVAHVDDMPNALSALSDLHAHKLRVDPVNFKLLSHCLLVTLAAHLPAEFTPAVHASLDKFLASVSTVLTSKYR
T2 sequence (P68871 2-147 limits assumed): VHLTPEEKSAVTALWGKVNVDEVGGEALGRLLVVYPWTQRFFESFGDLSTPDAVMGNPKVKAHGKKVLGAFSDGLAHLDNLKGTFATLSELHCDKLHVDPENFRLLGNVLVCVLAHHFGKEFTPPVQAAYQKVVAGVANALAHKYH

CC1=Cc2cc3[n-]c(cc4nc(cc5[n-]c(cc1n2)cc5C)C(C)=C4CCC(=O)O)c(CCC(=O)O)c3C.[Cu+2] [Cu deuteroporphyrin]
% R @ 90 second read time on CLINITEK-200+, mean ([1]; 120 μM metal porphyrin): 73.7 % R | % R @ 90 second read time on CLINITEK-200+, mean ([2]; 120 μM metal porphyrin): 57.2 % R | response / activity with apo-peroxidase (in words) [2]: responses similar to those obtained for Fe

CC1=Cc2cc3[n-]c(cc4nc(cc5[n-]c(cc1n2)cc5C)C(C)=C4CCC(=O)O)c(CCC(=O)O)c3C.[Fe+2] [Fe deuteroporphyrin]
% R @ 90 second read time on CLINITEK-200+, mean [3]: 49.2 % R | % R @ 90 second read time on CLINITEK-200+, mean ([1]; 12 μM metal porphyrin): 72.2 % R | % R @ 90 second read time on CLINITEK-200+, mean ([2]; 12 μM metal porphyrin): 56.1 % R

CC1=Cc2cc3[n-]c(cc4nc(cc5[n-]c(cc1n2)cc5C)C(C)=C4CCC(=O)O)c(CCC(=O)O)c3C.[Mg+2] [Mg deuteroporphyrin]
% R @ 90 second read time on CLINITEK-200+, mean ([1]; 120 μM metal porphyrin): 74.4 % R | % R @ 90 second read time on CLINITEK-200+, mean ([2]; 120 μM metal porphyrin): 70.9 % R

Cc1cc(C)nc(NS(=O)(=O)c2ccc(N)cc2)n1 [Sulfamethazine]
Reagent Response (% R @ 30 Sec) @ 660 nm ([4]; 24 nM antigen): 21.3 % R | Reagent Response (% R @ 30 Sec) @ 660 nm ([4]; free antigen none): 23.6 % R | prevention of apo-enzyme reactivation by antibody (in words) ([4]; antigen-hematin plus antibody): did not prevent apo-enzyme reactivation

CC1=Cc2cc3[n-]c(cc4nc(cc5[n-]c(cc1n2)cc5C)C(C)=C4CCC(=O)O)c(CCC(=O)O)c3C.[Zn+2] [Zn deuteroporphyrin]
% R @ 90 second read time on CLINITEK-200+, mean ([1]; 120 μM metal porphyrin): 71.3 % R | % R @ 90 second read time on CLINITEK-200+, mean ([2]; 120 μM metal porphyrin): 70.7 % R

C=CC1=C(C)c2cc3[n-]c(cc4[n-]c(cc5nc(cc1n2)C(C)=C5C=C)c(C)c4CCC(=O)O)c(CCC(=O)O)c3C.O.[Fe+2] [hematin]
response of HEMASTIX reagent, % reflectance ([4]; phosphate buffered saline solution containing hematin alone, 1 minute): 65.7 % reflectance | peroxidase activity (in words) ([5]; in the presence of apo-POD): detectable at 3.6 nM | peroxidase activity (in words) ([5]; without partner): not detectable | Mean % Reflectance @ 660 nm [6, 8]: 64.9% | Mean % Reflectance @ 660 nm ([6]; 3.6 nM, antigen IgG, with apo-POD (Cases C, D)): 46.3% | Mean % Reflectance @ 660 nm [6, 9]: 63.4% | Mean % Reflectance @ 660 nm ([6]; (3.6 nM; antigen Sulfmethazine), with apo-POD (Cases C, D)): 48.9% | Mean % Reflectance @ 660 nm [6, 10]: 65.1% | Mean % Reflectance @ 660 nm ([6]; (3.6 mM; antigen BJP), with apo-POD (Cases C, D)): 55.3%

Co deuteroporphyrin
% R @ 90 second read time on CLINITEK-200+, mean ([1]; 120 μM metal porphyrin): 71.5 % R | % R @ 90 second read time on CLINITEK-200+, mean ([2]; 120 μM metal porphyrin): 74.1 % R

Fe coproporphyrin
% R @ 90 second read time on CLINITEK-200+, mean [3]: 52.1 % R | % R @ 90 second read time on CLINITEK-200+, mean ([1]; 12 μM metal porphyrin): 69.7 % R | % R @ 90 second read time on CLINITEK-200+, mean ([2]; 12 μM metal porphyrin): 56.4 % R

Mn deuteroporphyrin
% R @ 90 second read time on CLINITEK-200+, mean ([1]; 120 μM metal porphyrin): 66.4 % R | % R @ 90 second read time on CLINITEK-200+, mean ([2]; 120 μM metal porphyrin): 48.2 % R | response / activity with apo-peroxidase (in words) [2]: responses similar to those obtained for Fe

Ni deuteroporphyrin
% R @ 90 second read time on CLINITEK-200+, mean ([1]; 120 μM metal porphyrin): 75.5 % R | % R @ 90 second read time on CLINITEK-200+, mean ([2]; 120 μM metal porphyrin): 76.1 % R

Pb deuteroporphyrin
% R @ 90 second read time on CLINITEK-200+, mean ([1]; 120 μM metal porphyrin): 72.1 % R | % R @ 90 second read time on CLINITEK-200+, mean ([2]; 120 μM metal porphyrin): 73.4 % R

apo-POD: Apo-horse radish peroxidase obtained from Sigma Chemical Company
peroxidase activity (in words) ([5]; without partner): no activity by itself | time to complete reactivation ([5]; 20-40° C.): 1 min | Mean % Reflectance @ 660 nm [6, 8]: 62.3% | Mean % Reflectance @ 660 nm [6, 9]: 61.2% | Mean % Reflectance @ 660 nm [6, 10]: 64.1%

hemoglobin: interfering substance, 0.81 mg/dL
interference with peroxidase detecting reagent (in words) [7]: causes a false positive response

B1: myoglobin: interfering substance, 0.81 mg/dL (protein, UniProt P02144 2-154, looked up)
Myoglobin: GLSDGEWQLVLNVWGKVEADIPGHGQEVLIRLFKGHPETLEKFDKFKHLKSEDEMKASEDLKKHGATVLTALGGILKKKGHHEAEIKPLAQSHATKHKIPVKYLEFISECIIQVLQSKHPGDFGADAQGAMNKALELFRKDMASNYKELGFQG
interference with peroxidase detecting reagent (in words) [7]: causes a false positive response
